Measurements as given in patent US9156827B2, “Anticancer agent” (THE UNIVERSITY OF TOKYO, priority 2010, dated 2015).
Structures can show the parent of a compound that is named as a salt.

Key:
[1] = biological target: pim-1 kinase (Homo sapiens, UniProt P11309); test: Measurement of pim-1 kinase inhibitory activity (fluorescent substrate peptide, capillary electrophoresis); format: biochemical; details: 0.1 μM of each compound, 30 μM ATP, 1.5 μM substrate peptide, room temperature 2 hours
Procedure: Measurement of Pim-1 Kinase Inhibitory Activity
The result of the reaction was determined by quantifying the substrate and the phosphorylated reaction product separated by capillary electrophoresis based on difference in charges of the substances (EZ Reader II, Caliper Life Sciences, was used).

[2] = system: human acute myeloid leukemia MV4.11 cells; test: Cell proliferation-suppressing activity, fluorescence method (Alamar Blue assay); format: cell-based; details: 48 h, compound 1 μM, Alamar Blue assay two days after inoculation, Table 5
Procedure: Measurement of Cell Proliferation-Suppressing Activity (Fluorescence Method)
Each compound was added to a 96-well microtiter plate at a final concentration of 1 μM, then human acute myeloid leukemia MV4.11 cells (10^4 cells) were inoculated, and the Alamar Blue assay was performed two days after the inoculation (measurement of fluorescence: Ex. 535 nm, Em. 590 nm) to measure cell proliferation-suppressing activity.

[3] = system: Human acute myeloid leukemia MV4-11 cells; test: Cell proliferation-suppressing activity, chromogenic method (MTT assay); format: cell-based; details: 72 h, compound 1 μM, MTT assay three days after addition
Procedure: Measurement of Cell Proliferation-Suppressing Activity (Chromogenic Method)
Human acute myeloid leukemia MV4-11 cells (10^4 cells) were inoculated on a 96-well microtiter plate, each compound was added at a final concentration of 1 μM 24 hours afterward, and MTT assay was performed three days after the addition of the compound to measure the cell proliferation-suppressing activity.

pim-1 kinase, sequence (P11309 whole entry): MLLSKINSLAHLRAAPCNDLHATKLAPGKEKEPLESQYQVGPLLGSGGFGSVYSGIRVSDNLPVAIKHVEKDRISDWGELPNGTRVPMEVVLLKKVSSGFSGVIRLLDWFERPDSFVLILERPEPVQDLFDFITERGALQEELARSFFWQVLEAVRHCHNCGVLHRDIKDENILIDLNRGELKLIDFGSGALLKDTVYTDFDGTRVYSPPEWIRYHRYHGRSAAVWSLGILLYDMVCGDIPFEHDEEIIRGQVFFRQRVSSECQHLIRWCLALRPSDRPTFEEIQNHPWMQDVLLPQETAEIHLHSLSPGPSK

| SMILES | inhibition at 0.1 µM ([1]; Table 1) | inhibition at 0.1 µM ([1]; Table 2) | inhibition at 1 µM [2] | inhibition at 1 µM ([3]; Table 3) | inhibition at 1 µM ([3]; Table 4) |
| --- | --- | --- | --- | --- | --- |
| O=C1/C(=C/c2c[nH]c3ccccc23)Oc2c1cc(Cl)c(O)c2CN1CCNCC1 [Compound A12, (Z)-2-[(1H-Indol-3-yl)methylene]-5-chloro-6-hydroxy-7-(piperazin-1-ylmethyl)benzofuran-3(2H)-one dihydrochloride] | 81% |  | 87% |  |  |
| Nc1ccc2c(/C=C3\Oc4c(ccc(O)c4CN4CCNCC4)C3=O)c[nH]c2c1 [Compound A25, (Z)-2-[(6-Amino-1H-indol-3-yl)methylene]-6-hydroxy-7-(piperazin-1-ylmethyl)benzofuran-3(2H)-one trihydrochloride] | 83% |  | 20% |  |  |
| O=C1/C(=C/c2c[nH]c3ccccc23)Oc2c1ccc(O)c2CN1CCNCC1 [Compound A11, (Z)-2-[(1H-Indol-3-yl)methylene]-6-hydroxy-7-(piperazin-1-ylmethyl)benzofuran-3(2H)-one] | 87% |  |  | 82% |  |
| CN(C)C1CCN(Cc2c(O)ccc3c2O/C(=C\c2c[nH]c4ccccc24)C3=O)C1 (centres unmarked) [Compound A3, (Z)-2-[(1H-Indol-3-yl)methylene]-7-{[3-(dimethylamino)pyrrolidin-1-yl]methyl}-6-hydroxybenzofuran-3(2H)-one] | 47% |  |  | 41% |  |
| CCCCOc1ccc2c(c1CN1CCNCC1)O/C(=C\c1n[nH]c3ccccc13)C2=O [Compound B24, (Z)-2-[(1H-Indazol-3-yl)methylene]-6-butoxy-7-(piperazin-1-ylmethyl)benzofuran-3(2H)-one] |  | 88% |  |  | 89% |
| O=C1/C(=C/c2c[nH]c3ccc(Br)cc23)Oc2c1ccc(O)c2CN1CCNCC1 [Compound A22, (Z)-2-[(5-Bromo-1H-indol-3-yl)methylene]-6-hydroxy-7-(piperazin-1-ylmethyl)benzofuran-3(2H)-one dihydrochloride] | 94% |  |  | 70% |  |
| O=C1/C(=C/c2cn(S(=O)(=O)c3cccc(Cl)c3Cl)c3ccccc23)Oc2c1ccc(O)c2CN1CCNCC1 [Compound A38, (Z)-2-{[1-(2,3-Dichlorophenylsulfonyl)-1H-indol-3-yl]methylene}-6-hydroxy-7-(piperazin-1-ylmethyl)benzofuran-3(2H)-one dihydrochloride] | 99% |  | 43% |  |  |
| O=C1/C(=C/c2cn(S(=O)(=O)c3ccc(Cl)cc3)c3ccccc23)Oc2c1ccc(O)c2CN1CCNCC1 [Compound A35, (Z)-{[1-(4-Chlorophenylsulfonyl)-1H-indol-3-yl]methylene}-6-hydroxy-7-(piperazin-1-ylmethyl)benzofuran-3(2H)-one dihydrochloride] | 96% |  | 48% |  |  |
| O=C1/C(=C/c2c[nH]c3ccc([N+](=O)[O-])cc23)Oc2c1ccc(O)c2CN1CCNCC1 [Compound A17, (Z)-6-Hydroxy-2-[(5-nitro-1H-indol-3-yl)methylene]-7-(piperazin-1-ylmethyl)benzofuran-3(2H)-one dihydrochloride] | 82% |  |  | 73% |  |
| O=C1/C(=C/c2c[nH]c3ncccc23)Oc2c1ccc(O)c2CN1CCOCC1 [Compound A44, (Z)-2-[(1H-Pyrrolo[2,3-b]pyridin-3-yl)methylene]-6-hydroxy-7-(morpholinomethyl)benzofuran-3(2H)-one] | 27% |  | 46% |  |  |
| O=C1/C(=C/c2cn(S(=O)(=O)c3ccc(C(F)(F)F)cc3)c3ccccc23)Oc2c1ccc(O)c2CN1CCNCC1 [Compound A34, (Z)-6-Hydroxy-7-(piperazin-1-ylmethyl)-2-({1-[4-(trifluoromethyl)phenylsulfonyl]-1H-indol-3-yl}methylene)benzofuran-3(2H)-one dihydrochloride] | 98% |  | 58% |  |  |
| O=C1/C(=C/c2cn(S(=O)(=O)c3c(Cl)cccc3Cl)c3ccccc23)Oc2c1ccc(O)c2CN1CCNCC1 [Compound A37, (Z)-2-{[1-(2,6-Dichlorophenylsulfonyl)-1H-indol-3-yl]methylene}-6-hydroxy-7-(piperazin-1-ylmethyl)benzofuran-3(2H)-one dihydrochloride] | 99% |  | 55% |  |  |
| CC(C)COc1ccc2c(c1CN1CCNCC1)O/C(=C\c1n[nH]c3ccccc13)C2=O [Compound B26, (Z)-2-[(1H-Indazol-3-yl)methylene]-6-isobutoxy-7-(piperazin-1-ylmethyl)benzofuran-3(2H)-one] |  | 78% |  |  | 86% |
| O=C1CN(Cc2c(O)ccc3c2O/C(=C\c2c[nH]c4ccccc24)C3=O)CCN1 [Compound A7, (Z)-4-({2-[(1H-Indol-3-yl)methylene]-6-hydroxy-3-oxo-2,3-dihydrobenzofuran-7-yl}methyl)piperazin-2-one] | 81% |  |  | 22% |  |

More lines, main results first:

| inhibition at 0.1 µM ([1]; Table 1) | inhibition at 0.1 µM ([1]; Table 2) | SMILES | inhibition at 1 µM [2] | inhibition at 1 µM ([3]; Table 3) | inhibition at 1 µM ([3]; Table 4) |
| --- | --- | --- | --- | --- | --- |
|  | 97% | COCCOc1ccc2c(c1CN1CCNCC1)O/C(=C\c1n[nH]c3ccccc13)C2=O [Compound B21, (Z)-2-[(1H-Indazol-3-yl)methylene]-6-(2-methoxyethoxy)-7-(piperazin-1-ylmethyl)benzofuran-3(2H)-one] |  |  | 94% |
|  | 87% | COc1cc2c(c(CN3CCNCC3)c1OC)O/C(=C\c1n[nH]c3ccccc13)C2=O [Compound B38, (Z)-2-[(1H-Indazol-3-yl)methylene]-5,6-dimethoxy-7-(piperazin-1-ylmethyl)benzofuran-3(2H)-one] |  |  | 95% |
|  | 79% | C[C@H]1CNCCN1Cc1c(O)ccc2c1O/C(=C\c1n[nH]c3ccccc13)C2=O [Compound B3, (Z)-2-[(1H-Indazol-3-yl)methylene]-6-hydroxy-7-{[2-(S)-methylpiperazin-1-yl]methyl}benzofuran-3(2H)-one] |  |  | 79% |
|  | 96% | CCOc1ccc2c(c1CN1CCNCC1)O/C(=C\c1n[nH]c3ccccc13)C2=O [Compound B22, (Z)-2-[(1H-Indazol-3-yl)methylene]-6-ethoxy-7-(piperazin-1-ylmethyl)benzofuran-3(2H)-one] |  |  | 90% |
|  | 95% | O=C1/C(=C/c2n[nH]c3ccccc23)Oc2c1cc1c(c2CN2CCNCC2)OCO1 [Compound B39] |  |  | 92% |
|  | 86% | CC(c1c(O)ccc2c1O/C(=C\c1n[nH]c3ccccc13)C2=O)N1CCNCC1 (centres unmarked) [Compound B7, (Z)-2-[(1H-Indazol-3-yl)methylene]-6-hydroxy-7-[1-(piperazin-1-yl)ethyl]benzofuran-3(2H)-one] |  |  | 88% |
|  | 100% | COc1ccc2c(c1CN1CCNCC1)O/C(=C\c1n[nH]c3ccc(Br)cc13)C2=O [Compound B19, (Z)-2-[(5-Bromo-1H-indazol-3-yl)methylene]-6-methoxy-7-(piperazin-1-ylmethyl)benzofuran-3(2H)-one] |  |  | 94% |
|  | 91% | O=C1/C(=C/c2n[nH]c3ccccc23)Oc2c1ccc(OCC1CC1)c2CN1CCNCC1 [Compound B27, (Z)-2-[(1H-Indazol-3-yl)methylene]-6-(cyclopropylmethoxy)-7-(piperazin-1-ylmethyl)benzofuran-3(2H)-one] |  |  | 89% |
|  | 93% | CCCOc1ccc2c(c1CN1CCNCC1)O/C(=C\c1n[nH]c3ccccc13)C2=O [Compound B23, (Z)-2-[(1H-Indazol-3-yl)methylene]-7-(piperazin-1-ylmethyl)-6-propoxybenzofuran-3(2H)-one] |  |  | 90% |
|  | 100% | COc1ccc2c(c1CN1CCNCC1)O/C(=C\c1n[nH]c3ccccc13)C2=O [Compound B17, (Z)-2-[(1H-Indazol-3-yl)methylene]-6-methoxy-7-(piperazin-1-ylmethyl)benzofuran-3(2H)-one] |  |  | 93% |
|  | 82% | O=C1/C(=C/c2n[nH]c3ccccc23)Oc2c1ccc(OC1CCOCC1)c2CN1CCNCC1 [Compound B29, (Z)-2-[(1H-Indazol-3-yl)methylene]-7-(piperazin-1-ylmethyl)-6-(tetrahydro-2H-pyran-4-yloxy)benzofuran-3(2H)-one] |  |  | 90% |
|  | 97% | CC(C)Oc1ccc2c(c1CN1CCNCC1)O/C(=C\c1n[nH]c3ccccc13)C2=O [Compound B25, (Z)-2-[(1H-Indazol-3-yl)methylene]-6-isopropoxy-7-(piperazin-1-ylmethyl)benzofuran-3(2H)-one] |  |  | 91% |
|  | 97% | COc1ccc2c(c1OC1CCNCC1)O/C(=C\c1n[nH]c3ccccc13)C2=O [Compound B35, (Z)-2-[(1H-Indazol-3-yl)methylene]-6-methoxy-7-(piperidin-4-yloxy)benzofuran-3(2H)-one] |  |  | 95% |
|  | 89% | O=C1/C(=C/c2n[nH]c3ccccc23)Oc2c1ccc(OCCc1ccccc1)c2CN1CCNCC1 [Compound B30, (Z)-2-[(1H-Indazol-3-yl)methylene]-6-phenethoxy-7-(piperazin-1-ylmethyl)benzofuran-3(2H)-one] |  |  | 78% |
